# US20100015262A1, “NOVEL USE OF COMPOUNDS AND COMBINATIONS OF COMPOUNDS FOR IMPROVING THE PHYSICAL APPEARANCE” (priority 2006, published 2010)
# Where two headings read alike, the source gives them in different places.
# System: C3H10T1/2 cells
# Test: Adipocyte differentiation: lipid accumulation in induced C3H10T1/2 pre-adipocytes (Bodipy stain, Cellomics ArrayScan)
# Format: cell-based
# Conditions: for Cellular lipids (in % of differentiated cells) / activity at 0.5 µM / activity at 1 µM / activity at 2 µM / activity at 5 µM / activity at 25 µM: 7 days; for activity at 0.5 µM / activity at 1 µM / activity at 2 µM / activity at 5 µM / activity at 25 µM: Mus musculus, C3H 10T1/2, 168 h, read-out: Cellular lipids (in % of differentiated cells); for Effect on amount of cytoplasmic lipids (in words): single substances, summary of Table 1
# Method: In the present invention, the effect of agents was identified by using cellular assays that measure the effect on adipocyte differentiation. Adherent pre-adipocyte cells, C3H10T1/2, were used; they were cultured in complete DMEM/FCS, i.e. Dulbecco's modified essential medium (DMEM) supplemented with penicillin/streptomycin [50 U penicillin/ml, […] streptomycin/ml] and 10% fetal calf serum (FCS) and passaged every 3-5 days. For experiments, C3H10T1/2 cells were re-suspended in DMEM/FCS without phenol red and seeded at […] cells/per well in collagen I pre-coated 24-well plates. After 2-3 days cells reached confluence. Culture medium was changed and cell differentiation was induced by adding induction medium consisting of rosiglitazone and insulin (at 50 μmol/L and 200 nmol/L, respectively). In some cases the induction medium consisted of […] dexamethasone and 500 μmol/L 3-isobutyl-1-methylxanthine. Control cells were cultured in DMEM/FCS containing only insulin. Where appropriate, substances were added to the differentiation medium at various concentrations at the time of induction, except for carotenoids which were added at the beginning of culture in order to preload the cells. The induction medium was changed every 2-3-days. Seven days after induction, cells were fixed in 60% isopropanol (40% water). After two washes in phosphate buffered saline (PBS), cells were stained with the neutral lipid stain Bodipy® 493/505 (0.5 μg/ml) and the nuclear stain Hoechst 33342 dye (2 μg/ml) for 30 minutes in the dark. After washing with PBS, the stained cells were stored at 4° C. in PBS. The extent of differentiation was quantified in a Cellomics array™ Array Scan V^Ti (http://www.cellomics.com/) using the Spot Detector BioApplication that had been optimized for detecting lipid accumulation in differentiated adipocytes. Effects of treatments were quantified using the ‘SpotCount’ and ‘SpotCountPerObject’ parameter that adequately reflects the differentiation status of the adipocytes.
# The tested compounds were purchased from Sigma (PUFAs, i.e. DHA docosahexaenoic acid; EPA eicosapentaenoic acid) or Cayman Chemicals hydroxytyrosol), from DSM (hydroxytyrosol, resveratrol, genistein) or from Ehrenstorfer GmbH, Augsburg Germany (carotenoids like β-carotene, β-cryptoxanthin, lutein, lycopene, zeaxanithin); rose hip concentrate/powder was purchased from HybenVital (Denmark). The compounds to be tested were dissolved in dimethylsulfoxide (DMSO) or—in the case of carotenoids—in tetrahydrofuran (THF). Cells were preloaded with carotenoids, i.e. these were added to the culture medium when cells were seeded into test plates. Carotenoids were freshly prepared for every experimental series. Vehicle solution was added to reach a final concentration of 0.5% (v/v).
# We further tested the effect of substances that were added to cultures concomitantly. The obtained values were then compared to the sum of the effect of individual substances: positive values indicate that two substances interact synergistically and thus surpass the individual effects.
# [1] = 0.5 μM carotenoid (cells preloaded) + inducers
# [2] = 1.0 μM carotenoid (cells preloaded) + inducers
# [3] = 2.0 μM carotenoid (cells preloaded) + inducers
# [4] = 1 μM compound + inducers of differentiation
# [5] = 5 μM compound + inducers of differentiation
# [6] = 25 μM compound + inducers of differentiation
molecule,measurement,setting,value
CC1=C(/C=C/C(C)=C/C=C/C(C)=C/C=C/C=C(C)/C=C/C=C(C)/C=C/C2=C(C)C[C@@H](O)CC2(C)C)C(C)(C)C[C@H](O)C1 [zeaxanthin],Cellular lipids (in % of differentiated cells),[1],56.8%
same,Cellular lipids (in % of differentiated cells),[2],39.5%
same,Cellular lipids (in % of differentiated cells),[3],43.7%
"CC1=C(/C=C/C(C)=C/C=C/C(C)=C/C=C/C=C(C)/C=C/C=C(C)/C=C/C2=C(C)CCCC2(C)C)C(C)(C)CCC1 [beta-carotene, β-carotene]",activity at 0.5 µM,[1],93%
same,activity at 1 µM,[2],66.7%
same,activity at 2 µM,[3],69.4%
"Oc1ccc(C=Cc2cc(O)cc(O)c2)cc1 [Resveratrol, resveratrol]",activity at 1 µM,[4],106%
same,activity at 5 µM,[5],102%
same,activity at 25 µM,[6],103%
same,Effect on amount of cytoplasmic lipids (in words),,only minor effects
(−)-epigallocatechin gallate [EGCG],Cellular lipids (in % of differentiated cells),[4],113.1%
same,Cellular lipids (in % of differentiated cells),[5],98.9%
same,Cellular lipids (in % of differentiated cells),[6],93.1%
same,Effect on amount of cytoplasmic lipids (in words),,only minor effects
"CC/C=C\C/C=C\C/C=C\C/C=C\C/C=C\CCCC(=O)O [EPA, eicosapentaenoic acid]",activity at 1 µM,[4],86.6%
same,activity at 5 µM,[5],77%
same,activity at 25 µM,[6],74.1%
"CC/C=C\C/C=C\C/C=C\C/C=C\C/C=C\C/C=C\CCC(=O)O [DHA, docosahexaenoic acid]",activity at 1 µM,[4],95.9%
same,activity at 5 µM,[5],91.5%
same,activity at 25 µM,[6],66.2%
CC(C)=CCC/C(C)=C/C=C/C(C)=C/C=C/C(C)=C/C=C/C=C(C)/C=C/C=C(C)/C=C/C=C(\C)CCC=C(C)C [lycopene],activity at 0.5 µM,[1],44.5%
same,activity at 1 µM,[2],45.1%
same,activity at 2 µM,[3],24.6%
CC1=C(/C=C/C(C)=C/C=C/C(C)=C/C=C/C=C(C)/C=C/C=C(C)/C=C/C2=C(C)C[C@@H](O)CC2(C)C)C(C)(C)CCC1 [β-cryptoxanthin],Cellular lipids (in % of differentiated cells),[1],47.5%
same,Cellular lipids (in % of differentiated cells),[2],34.9%
same,Cellular lipids (in % of differentiated cells),[3],16.2%
CC1=C[C@H](O)CC(C)(C)[C@H]1/C=C/C(C)=C/C=C/C(C)=C/C=C/C=C(C)/C=C/C=C(C)/C=C/C1=C(C)C[C@@H](O)CC1(C)C [lutein],activity at 0.5 µM,[1],94.3%
same,activity at 1 µM,[2],85.6%
same,activity at 2 µM,[3],72.1%
"O=c1c(-c2ccc(O)cc2)coc2cc(O)cc(O)c12 [Genistein, genistein]",activity at 1 µM,[4],112%
same,activity at 5 µM,[5],99.7%
same,activity at 25 µM,[6],95.9%
same,Effect on amount of cytoplasmic lipids (in words),,only minor effects
OCCc1ccc(O)c(O)c1 [Hydroxytyrosol],activity at 1 µM,[4],103%
same,activity at 5 µM,[5],103%
same,activity at 25 µM,[6],68.3%
